Results on 4 substances are retold here after patent US6767891B2, “Peptides with wound healing activity” (priority 2000, dated 2004).

Where no end group is shown, it is not given here.

Data set [1] has as its system normal human vascular endothelial cells (NHVEC). Briefly: Boyden chamber migration assay. The note with it: for cell migration over migration in the presence of media alone / migration response compared to positive controls VEGF, PDGF, FGF: 100 ng/ml; for concentration of maximal effect on migration: dose response. In kind it is cell-based. How it is done: The effects of TB4 and TA1 on endothelial cell migration were determined. To investigate the possibility that these peptides effect the migration of normal human vascular endothelial cells (NHVEC) in vitro, a Boyden chamber migration assay was performed.
In the experiments of Table 1 and FIG. 1, normal human […] endothelial cells are used at 5×10^4 cells per well. The wells are coated with 100 μg/ml […] Type IV.

For a further data set, the system named is venous stasis ulceration. Briefly: Clinical course of Patient 1, shin ulcer. Type of data set: in vivo, human. From the text: The injury started with a bruise on the left shin, but approximately seven weeks later the area started to get erythematous. The patient was sent by the general internist to the local hospital wound healing center, where the wound was debrided and Silvadene cream was used. However, the patient was not progressing well and grafting was considered. […] The underlying problem was venous stasis with the development of ulceration secondary to minor trauma. The ulcer was about 3.0 cm by 1.0 cm in size with a 1-cm rim of mild erythema. […] The patient was given a preparation containing TA1 to be used twice daily to the small 4 mm area.
The treatment with TA1 was continued for another week twice daily.
At this point, treatment was changed to a preparation containing TB4 to be applied twice daily to the entire ulcer.
After the entire ulcer had been treated for seven days with TB4 twice daily, it was noted that the size of the ulcer was starting to reduce. The wound center physician was concerned about infection (cellulitis around the ulcer). The patient was placed on oral antibiotics for 10 days. However, when the surrounding erythema was palpated, there was no tenderness. The wound appeared to be repairing and increasing the vascular flow to the ulcer base and surrounding skin. The patient felt that after treating the entire for seven days they improved by 40%. The patient was given more preparation containing TB4 for the next week. The internist felt that the patient should not undergo surgery for grafting due to cardiac problems in view of the improvement in the wound.

In data set [2] the test system is ulcerations of fingers secondary to burns, diabetes mellitus. Briefly: Clinical course of Patient 2, finger ulcerations. Type of data set: in vivo, human. How it is done:
The glucose levels of the patient were not kept under control. The patient developed heat burns with blistering and erosions on the patient's fingers. The ulcers are cleansed and Silvadene cream is used for wound healing, which usually takes 2-4 weeks. Occasionally, systematic antibiotics are given.
The patient was seen after having burned the distal phalanx of the left middle finger with a hairdryer 10 days before. The patient had taken some leftover Ceftin 250 mg twice daily and has used Silvadene cream twice daily for the 10 days, but the ulcer would not heal. The ulcer was debrided and the patient was given a preparation containing TA5 to use on the ulcer base twice daily. This ulcer was on the lateral thenar side of the left middle finger.
Approximately six weeks later, the patient had developed new ulcerations of the right index finger on the palmar-ventral side (5 days), and two ulcerations on the right middle finger on the distal digit, lateral thenar side (5 days) and the second digit on the dorsal side (2 weeks history). These ulcerations had developed after the patient had handled hot items. Dicloxacillin (500 mg twice daily) was given for 10 days. The patient was given TB4 wound healing preparation to be used twice daily to the ulcerations.

For data set [3], the system named is healed wound erythema, melanin pigmentation. Briefly: Clinical effects of TB4 in vivo (erythema, pigmentation). The source says:
There was not post-inflammatory erythema and hyperpigmentation. Frequently, the skin color was normal and not the expected deep red-purple with brown coloration that would take months to resolve on the leg.
Another effect seen is the reduction of melanin pigmentation on the areas of treatment with TB4.

In the next data set the test system is endothelial cells. Kind of data set: MTT (tetrazolium) endothelial cell proliferation assay. Type of data set: cell-based. The note with it: 10 ng/ml; 4 hours and 24 hours. How it is done: The effects of TB4 and TA1 on endothelial cell proliferation were determined using a MTT (tetrazolium) assay. The results are shown in FIG. 2 for 4 hours and 24 hours and for three concentrations of these peptides, 10 ng/ml, 100 ng/ml, and 1000 ng/ml. […] At a concentration of 10 ng/ml, TB4 and TA1 maximally stimulated cell proliferation approximately 2-fold and 3-fold over that of the control, respectively.

The next data set deals with NHVEC. Kind of data set: scratch wound closure assay. Type of data set: cell-based, human. The note with it: 10 ng/ml, scratched confluent monolayer. How it is done:
To examine the effects of TB4 and TA1 (10 ng/ml) on NHVEC migration, a scratch would closure assay was used.

A further data set relates to chronic wounds. Kind of data set: Pilot study in humans with chronic wounds, collagen synthesis. The conditions noted are these: 20 volunteers, biopsies at baseline and two months, preliminary results. Type of data set: in vivo, human. As for the experimental part: A pilot study of TA1 and TA5 was performed in humans with 20 volunteers with chronic wounds. Skin biopsies were taken at the baseline and at two months, subjected to histological analysis, immunohistological analysis, and objective and subjective observation. Immunohistochemistry endpoints were epidermal differentiation, epidermal proliferation, and markers of inflammation and were assayed by using anti-CD3 monoclonal antibody.

A short description of data set [4]: Isoelectric point of peptide. In kind it is physicochemical.
The test system of data set [5] is full thickness punch wounds in rat skin. Briefly: Wound healing in vivo, full thickness punch wounds. As for the experimental part: To study the effect of TA1 on wound healing in vivo, full thickness punch wounds were made in rat skin and treated with TA1 topically or by intraperitoneal injection with a seven-day study interval. For topical treatment, 5 μg of TA1 was applied in 50 μl saline on injury date and 48 hours post-injury. For intraperitoneal treatment, 60 μg of TA1 was administered in 300 μl saline on injury date and then every other day.

Where [6] appears, read: 10 μg/ml, 5×10^4 cells per well.

Consider VEGF [reference compound], for which, in [1] (10 ng/ml, positive control), the “Cell Number per HPF, Chamber 1” value is 88 per HPF; the “Cell Number per HPF, Chamber 2” value is recorded as 95 per HPF; the “Cell Number per HPF, Chamber 3” value was 97 per HPF; the “Cell Number per HPF, Mean” value is 93 per HPF.
Regarding “Ac-ANKGQAPGEAMKPSFLKEKKEVVERSKEEEGPAKMNLVIEMPKD (Ac-ANKGQAPGEAMKPSFLKEKKEVVERSKEEEGPAKMNLVIEMPKD) [TB4]”, the “Cell Number per HPF, Chamber 1” value in data set [1] (0.1 μg/ml) was 18 per HPF; in data set [1] (0.5 μg/ml), 33 per HPF; in [1] (1 μg/ml) it was 45 per HPF; in data set [1] (5 μg/ml), 55 per HPF; in data set [1] (setting [6]) it was 70 per HPF. Besides, the “Cell Number per HPF, Chamber 2” value in data set [1] (0.1 μg/ml) is given as 12 per HPF; in [1] (0.5 μg/ml), 39 per HPF; in data set [1] (1 μg/ml) it was 47 per HPF; in data set [1] (5 μg/ml), 65 per HPF; in data set [1] (10 μg/ml), 77 per HPF. For the same substance, the “Cell Number per HPF, Chamber 3” value is recorded as 26 per HPF in [1] (0.1 μg/ml); 50 per HPF in [1] (0.5 μg/ml); 63 per HPF in data set [1] (1 μg/ml); 57 per HPF in [1] (5 μg/ml); 66 per HPF in data set [1] (10 μg/ml). The “Cell Number per HPF, Mean” value is recorded as 19 per HPF in data set [1] (0.1 μg/ml); 41 per HPF in [1] (0.5 μg/ml); 52 per HPF in data set [1] (1 μg/ml); 59 per HPF in [1] (5 μg/ml); 71 per HPF in data set [1] (10 μg/ml). In addition, in data set [1], the “cell migration over migration in the presence of media alone” value is “significantly enhanced cell migration”. Also, the “migration response compared to positive controls VEGF, PDGF, FGF” value in data set [1] is “heightened responses”. Besides, the “concentration of maximal effect on migration” value in [1] was 100 ng/mL. Further, the “size of the ulcer” value with venous stasis ulceration (after another seven days (14 days), peripheral islands of healing) was “size of the ulcer was the same”. In addition, in the data set on venous stasis ulceration (after treating entire ulcer for seven days), the “improvement felt by the patient” value is reported as 40%. The status of ulcer result is “almost completely closed” with venous stasis ulceration (another seven days after FIG. 11) and “no ulceration” in the data set with venous stasis ulceration (another two weeks, once daily, FIG. 12). For the same substance, in data set [2] (another five days (12 days)), the ulcers cleared entry is listed as “approximately 90%”. Further, the “improvement in the ulcerations” value in data set [2] (one week, twice daily, dicloxacillin also given) is given as 70-80%. Also, the “clinical intensity of brown melasma, lentigines, post-inflammatory hyperpigmentation and ephelides” value in [3] (areas of treatment) is “definite reduction in the clinical intensity”. Moreover, the “effect on erythema of the healed wound” value in data set [3] (e.g. on the shin) is on record as “reducing the erythema of the healed wound”. Besides, in data set [3] (evaluation not continued), the “erythema of poikiloderma vasculare of the neck secondary to chronic sun exposure” value is “erythema was reducing”. Besides, the “maximal stimulation of cell proliferation over that of the control” value in the data set with endothelial cells is listed as “approximately 2 fold”. For the same substance, the “migration of cells into the wounded area compared to media alone” value in the data set with NHVEC is “significantly increased”.
As for “KKLKKEENPLELKEKLKEKKNPLPSKEEEKASPFDKI -T-E-T-P-D-M-S [TA5]”, the “stimulating collagen synthesis compared with tretinoin and vitamin C” value in the data set on chronic wounds is listed as “more effective in stimulating collagen synthesis than tretinoin or vitamin C”. Further, the “new shallow ulceration resolved” value in data set [2] (one week, twice daily) is “approximately 70%”. The “status of ulcer, left middle finger” value in [2] (one week, twice daily on ulcer base) is given as “dramatic improvement of the ulcer base”. Moreover, the “older, deeper ulceration healing” value in data set [2] (two weeks, twice daily) is given as “healing more rapidly than previously”.
Take Ac-SDAAVDTSSEITTKDLKEKKEVVEEAEN [TA1]: the “Cell Number per HPF, Chamber 1” value was 38 per HPF in [1] (0.1 μg/ml); 52 per HPF in data set [1] (0.5 μg/ml); 64 per HPF in data set [1] (1 μg/ml); 35 per HPF in [1] (5 μg/ml); 51 per HPF in data set [1] (setting [6]). In addition, the “Cell Number per HPF, Chamber 2” value in [1] (0.1 μg/ml) worked out at 45 per HPF; in data set [1] (0.5 μg/ml) it was 53 per HPF; in data set [1] (1 μg/ml), 69 per HPF; in data set [1] (5 μg/ml) it was 64 per HPF; in data set [1] (10 μg/ml), 55 per HPF. The “Cell Number per HPF, Chamber 3” value turned out to be 33 per HPF in data set [1] (0.1 μg/ml); 57 per HPF in [1] (0.5 μg/ml); 43 per HPF in [1] (1 μg/ml); 72 per HPF in data set [1] (5 μg/ml); 66 per HPF in data set [1] (10 μg/ml). Besides, the “Cell Number per HPF, Mean” value in data set [1] (0.1 μg/ml) stood at 39 per HPF; in data set [1] (0.5 μg/ml), 54 per HPF; in data set [1] (1 μg/ml) it was 59 per HPF; in [1] (5 μg/ml), 57 per HPF; in data set [1] (10 μg/ml), 57 per HPF. In addition, in data set [1], the “cell migration over migration in the presence of media alone” value is recorded as “significantly enhanced cell migration”. In addition, in [1], the “migration response compared to positive controls VEGF, PDGF, FGF” value is given as “heightened responses”. The “concentration of maximal effect on migration” value in [1] was 100 ng/mL. The “stimulating collagen synthesis compared with tretinoin and vitamin C” value in the data set with chronic wounds is reported as “more effective in stimulating collagen synthesis than tretinoin or vitamin C”. Moreover, the status of ulcer result in the data set on venous stasis ulceration (after 1 week, twice daily to the small 4 mm area) is “improvement was noted”. Besides, in the data set with venous stasis ulceration (after 2 weeks, twice daily), the “deeper 4 mm area of the ulceration” value is given as “now level with the rest of the ulcer”. Also, the isoelectric point in data set [4] is reported as 4.1. Besides, the “maximal stimulation of cell proliferation over that of the control” value with endothelial cells was about 3 fold. For the same substance, in the data set with NHVEC, the “migration of cells into the wounded area compared to media alone” value is on record as “significantly increased”. Also, the “4-day post-injury findings: capillary ingrowth and collagen deposition” value in data set [5] (4-day post-injury) is “increased capillary ingrowth and collagen deposition”. For the same substance, the “4-day post-injury findings: reepithelialization, wound contraction, keratinocyte migration” value in [5] (4-day post-injury) was “accelerated reepithelialization, wound contraction, and keratinocyte migration”. The “decrease in wound width versus normal saline control” value in [5] (intraperitoneal 60 μg, p 0.0001 four-day, p 0.08 seven-day) is 42%±9%. In addition, the “decrease in gap size versus normal saline (NS) control” value in [5] (intraperitoneal 60 μg, p 0.0007 for four-day and seven-day results) is given as 42%±9%; in data set [5] (topical 5 μg, significant for seven-day results (p 0.04)) it was 18%±12%. Also, the “decrease in wound width versus normal saline (NS) control” value in [5] (topical 5 μg, p 0.0001 four and seven-day results) came out at 15%.
